Patent publication EP0597303A2, “Cephalosporin derivatives” (priority 1992, dated 1994)
Structures can show the parent of a compound that is named as a salt. Where two headings read alike, the source gives them in different places.

Tests used:
Test in all cases: MIC, Agar (Mueller Hinton) Dilution Method
Format in all cases: cell-based
[1] = system: Proteus vulgaris ATCC 6380; details: ATCC6380; Proteus vulgaris ATCC 6380; constitutive ß-lactamase producer; Gram Negative; read-out: MIC
Excerpt: (§1) The in vitro activity of the compounds of formula I of the present invention as measured by the Minimum Inhibitory Concentration (MIC) in micrograms/ml utilizing the Agar (Mueller Hinton) Dilution Method against a variety of Gram-positive and Gram-negative organisms, is set forth in Table 1.

Staph. aureus ATCC 29213 = details: Staphylococcus aureus, ATCC29213; Staph. aureus ATCC 29213; Gram Positive and Others; read-out: MIC
Excerpt: as §1

Ps. aeruginosa B = details: Pseudomonas aeruginosa, Gram Negative
Excerpt: as §1

Klebsiella pneumoniae A = details: Gram Negative
Excerpt: as §1

E. coli 2008 E = details: Escherichia coli
Excerpt: as §1

Str. pyogenes 503-782 = details: Streptococcus pyogenes, 503782
Excerpt: as §1

Micrococcus luteus PCI = system: Micrococcus luteus PCI
Excerpt: as §1

Staph. aureus 3647B = details: Staphylococcus aureus
Excerpt: as §1

[2] = system: Pseudomonas aeruginosa 5712; details: Gram Negative
Excerpt: as §1

Enterobacter cloacae P99 = system: Enterobacter cloacae P99
Excerpt: as §1

Ps. aeruginosa 1937E = details: Pseudomonas aeruginosa, Gram Negative
Excerpt: as §1

Enter. cloacae 5699 = details: Enterobacter cloacae, Gram Negative
Excerpt: as §1

Staph. pyogenes 4 = system: Staph. pyogenes 4
Excerpt: as §1

E. coli TEM-1a = details: Escherichia coli, TEM1A
Excerpt: as §1

Enter. cloacae 4192-2 = details: Enterobacter cloacae, 41922
Excerpt: as §1

E. coli 2721B = details: Escherichia coli; E. coli 2721B; Gram Negative; read-out: MIC
Excerpt: as §1

Ps. cepacia 1973 B = details: Burkholderia cepacia, Gram Negative
Excerpt: as §1

K. pneumoniae 369 = details: Klebsiella pneumoniae
Excerpt: as §1

E. coli 1269B = details: Escherichia coli, Gram Negative
Excerpt: as §1

Staph. aureus 82 = details: Staphylococcus aureus
Excerpt: as §1

Ps. aeruginosa 56 = details: Pseudomonas aeruginosa, Gram Negative
Excerpt: as §1

E. coli 1894 E = details: Escherichia coli
Excerpt: as §1

Staph. aureus 753 = details: Staphylococcus aureus; Staph. aureus 753; methicillin-resistant; Gram Positive and Others; read-out: MIC
Excerpt: as §1

Candida albicans 155 = details: Gram Positive and Others
Excerpt: as §1

Ser. marcescens 1071 = details: Serratia marcescens
Excerpt: as §1

K. oxytoca 1082EN = details: Klebsiella oxytoca
Excerpt: as §1

Ps. aeruginosa 56-1B = details: Pseudomonas aeruginosa, 561B
Excerpt: as §1

Ent. hirae ATCC 8043 = details: Enterococcus hirae, ATCC8043, Gram Positive and Others
Excerpt: as §1

Staph. aureus 67 = details: Staphylococcus aureus
Excerpt: as §1

Ser. sp. 101 = details: Ser. sp. 101; Gram Negative; read-out: MIC
Excerpt: as §1

Prot. mirabilis 190 = details: Proteus mirabilis
Excerpt: as §1

Ps. aeruginosa K799/61 = details: Pseudomonas aeruginosa
Excerpt: as §1

E. coli ATCC 25922 = details: Escherichia coli, ATCC25922
Excerpt: as §1

Prot. mirabilis 90 = details: Proteus mirabilis
Excerpt: as §1

Prot. mirabilis 2 = details: Proteus mirabilis; Prot. mirabilis 2; Gram Negative; read-out: MIC
Excerpt: as §1

E. coli 2722B = details: Escherichia coli, Gram Negative
Excerpt: as §1

Prot. mirabilis 503-1136 = details: Proteus mirabilis, 5031136; Prot. mirabilis 503-1136; Gram Negative; read-out: MIC
Excerpt: as §1

Xan. maltophilia 2897B = details: Stenotrophomonas maltophilia, Gram Negative
Excerpt: as §1

[3] = E. coli 2008 E, Gram Negative, read-out: MIC
[4] = Str. pyogenes 503-782, Gram Positive and Others, read-out: MIC
[5] = Micrococcus luteus PCI, Gram Positive and Others, read-out: MIC
[6] = Staph. aureus 3647B, Gram Positive and Others, read-out: MIC
[7] = Staph. pyogenes 4, Gram Positive and Others, read-out: MIC
[8] = K. pneumoniae 369, Gram Negative, read-out: MIC
[9] = Staph. aureus 82, Gram Positive and Others, read-out: MIC
[10] = Ser. marcescens 1071, Gram Negative, read-out: MIC
[11] = Ps. aeruginosa 56-1B, Gram Negative, read-out: MIC
[12] = Staph. aureus 67, methicillin-resistant, Gram Positive and Others, read-out: MIC
[13] = Prot. mirabilis 190, Gram Negative, read-out: MIC
[14] = Ps. aeruginosa K799/61, Gram Negative, read-out: MIC
[15] = Prot. mirabilis 90, Gram Negative, read-out: MIC
[16] = Enter. cloacae 4192-2, Gram Negative, read-out: MIC
[17] = E. coli 1894 E, Gram Negative, read-out: MIC
[18] = K. oxytoca 1082EN, Gram Negative, read-out: MIC

| SMILES | MIC [1] | MIC (Staph. aureus ATCC 29213) | MIC (Ps. aeruginosa B) | MIC (Klebsiella pneumoniae A) | MIC [2] | MIC (Enterobacter cloacae P99) | MIC (Ps. aeruginosa 1937E) | MIC (Enter. cloacae 5699) | MIC (E. coli TEM-1a) | MIC (E. coli 2721B) | MIC (Ps. cepacia 1973 B) | MIC (E. coli 1269B) | MIC (Ps. aeruginosa 56) | MIC (Staph. aureus 753) | MIC (Candida albicans 155) | MIC (Ent. hirae ATCC 8043) | MIC (Ser. sp. 101) | MIC (Prot. mirabilis 2) | MIC (E. coli 2722B) | MIC (Prot. mirabilis 503-1136) | also measured |
| --- | --- | --- | --- | --- | --- | --- | --- | --- | --- | --- | --- | --- | --- | --- | --- | --- | --- | --- | --- | --- | --- |
| O=C(Cc1cccs1)N[C@@H]1C(=O)N2C(C(=O)O)=C(COC(=O)N3CCN(c4c(F)cc5c(=O)c(C(=O)O)cn(C6CC6)c5c4F)CC3)CS[C@H]12 [Formula Ia, [6R,7R]-3-[[[[4-(3-Carboxy-1-cyclopropyl-6,8-difluoro-1,4-dihydro-4-oxo-7-quinolinyl)-1-piperazinyl]carbonyl]-oxy]-methyl]-8-oxo-7-[(2-thienylacetyl)amino]-5-thia-1-azabicyclo-[4.2.0]oct-2-ene-2-carboxylic acid] | 0.125 µg/mL | 0.5 µg/mL | 0.5 µg/mL | 0.25 µg/mL | 2 µg/mL | ≤ 0.0156 µg/mL | 1 µg/mL | 0.125 µg/mL | 0.0625 µg/mL | 0.0313 µg/mL | 4 µg/mL | 0.0313 µg/mL | 1 µg/mL | 0.5 µg/mL | > 128 µg/mL | 2 µg/mL | 0.5 µg/mL | 0.25 µg/mL | ≤ 0.0156 µg/mL | 0.5 µg/mL | MIC (E. coli 2008 E; [3]): 0.0313 µg/mL; MIC (Str. pyogenes 503-782; [4]): ≤ 0.0156 µg/mL; MIC (Micrococcus luteus PCI; [5]): ≤ 0.0156 µg/mL; MIC (Staph. aureus 3647B; [6]): 0.5 µg/mL; MIC (Staph. pyogenes 4; [7]): ≤ 0.0156 µg/mL; MIC (Enter. cloacae 4192-2): 0.0625 µg/mL; MIC (K. pneumoniae 369; [8]): 0.5 µg/mL; MIC (Staph. aureus 82; [9]): 0.125 µg/mL; MIC (E. coli 1894 E; 1894E): 0.0625 µg/mL; MIC (Ser. marcescens 1071; [10]): 0.125 µg/mL; MIC (K. oxytoca 1082EN; 1082EN): 0.0625 µg/mL; MIC (Ps. aeruginosa 56-1B; [11]): 0.25 µg/mL; MIC (Staph. aureus 67; [12]): 1 µg/mL; MIC (Prot. mirabilis 190; [13]): 0.125 µg/mL; MIC (Ps. aeruginosa K799/61; [14]): 2 µg/mL; MIC (E. coli ATCC 25922): 0.0625 µg/mL; MIC (Prot. mirabilis 90; [15]): 0.5 µg/mL; MIC (Xan. maltophilia 2897B): 1 µg/mL |
| N#CCC(=O)N[C@@H]1C(=O)N2C(C(=O)O)=C(COC(=O)NC3CCN(c4c(F)cc5c(=O)c(C(=O)O)cn(C6CC6)c5c4F)C3)CS[C@H]12 (stereo partly drawn) [Formula Ib, [6R,7R]-3-[[[[[1-(3-Carboxy-1-cyclopropyl-6,8-difluoro-1,4-dihydro-4-oxo-7-quinolinyl-3-[R,S]-pyrrolidinyl]-amino]carbonyl]oxy]methyl]-7-[(cyanoacetyl)amino]-8-oxo-5-thia-1-azabicyclo[4.2.0]oct-2-ene-2-carboxyiic acid monosodium salt] | 0.25 µg/mL | 0.25 µg/mL | 0.25 µg/mL | 0.25 µg/mL | 2 µg/mL | 0.0313 µg/mL | 0.5 µg/mL | 0.25 µg/mL | 0.125 µg/mL | 0.0625 µg/mL | 2 µg/mL | 0.0625 µg/mL | 0.5 µg/mL | 0.25 µg/mL | > 128 µg/mL | 2 µg/mL | 0.25 µg/mL | 0.25 µg/mL | ≤ 0.0156 µg/mL | 0.25 µg/mL | MIC (E. coli 2008 E; [3]): 0.0625 µg/mL; MIC (Str. pyogenes 503-782; [4]): 0.0625 µg/mL; MIC (Micrococcus luteus PCI; Micrococcus luteus): 0.125 µg/mL; MIC (Staph. aureus 3647B; [6]): 0.25 µg/mL; MIC (Staph. pyogenes 4; [7]): 0.0625 µg/mL; MIC (Enter. cloacae 4192-2; [16]): 0.0625 µg/mL; MIC (K. pneumoniae 369; [8]): 0.25 µg/mL; MIC (Staph. aureus 82; 82): 0.125 µg/mL; MIC (E. coli 1894 E; [17]): 0.0625 µg/mL; MIC (Ser. marcescens 1071; [10]): 0.25 µg/mL; MIC (K. oxytoca 1082EN; [18]): 0.0625 µg/mL; MIC (Ps. aeruginosa 56-1B; [11]): 0.5 µg/mL; MIC (Staph. aureus 67; [12]): 0.25 µg/mL; MIC (Prot. mirabilis 190; [13]): 0.25 µg/mL; MIC (Ps. aeruginosa K799/61; K799/61): 0.125 µg/mL; MIC (E. coli ATCC 25922; E. coli ATCC 25922, Gram Negative, read-out: MIC): 0.0625 µg/mL; MIC (Prot. mirabilis 90; [15]): 1 µg/mL; MIC (Xan. maltophilia 2897B): 0.25 µg/mL |
| N#CCC(=O)N[C@@H]1C(=O)N2C(C(=O)O)=C(COC(=O)N[C@H]3CCN(c4c(F)cc5c(=O)c(C(=O)O)cn(C6CC6)c5c4F)C3)CS[C@H]12 [Formula Iba, [6R-[3(S^*), 6 alpha, 7 beta]]-3-[[[[[1-(3-Carboxy-1-cyclopropyl-6,8-difluoro-1,4-dihydro-4-oxo-7-quinolinyl-3-pyrrolidinyl]-amino]carbonyl]oxy]methyl]-7-[(cyanoacetyl)amino]-8-oxo-5-thia 1-azabicyclo[4.2.0]oct-2-ene-2-carboxylic acid monosodium salt] | 0.0625 µg/mL | 0.0625 µg/mL | 0.25 µg/mL | 0.0625 µg/mL | 2 µg/mL | ≤ 0.0156 µg/mL | 0.25 µg/mL | 0.0625 µg/mL | 0.0313 µg/mL | ≤ 0.0156 µg/mL | 4 µg/mL | ≤ 0.0156 µg/mL | 0.25 µg/mL | 0.0625 µg/mL | > 128 µg/mL | 0.5 µg/mL | 0.0625 µg/mL | 0.0625 µg/mL | ≤ 0.0156 µg/mL | 0.0625 µg/mL | MIC (E. coli 2008 E; 2008E): 0.0313 µg/mL; MIC (Str. pyogenes 503-782): 0.0313 µg/mL; MIC (Micrococcus luteus PCI; [5]): 0.0625 µg/mL; MIC (Staph. aureus 3647B; 3647B): 0.0313 µg/mL; MIC (Staph. pyogenes 4; 4): 0.0313 µg/mL; MIC (Enter. cloacae 4192-2; [16]): ≤ 0.0156 µg/mL; MIC (K. pneumoniae 369; 369): 0.125 µg/mL; MIC (Staph. aureus 82; [9]): 0.0625 µg/mL; MIC (E. coli 1894 E; [17]): ≤ 0.0156 µg/mL; MIC (Ser. marcescens 1071; 1071): 0.0313 µg/mL; MIC (K. oxytoca 1082EN; [18]): ≤ 0.0156 µg/mL; MIC (Ps. aeruginosa 56-1B): 0.125 µg/mL; MIC (Staph. aureus 67; 67): 0.125 µg/mL; MIC (Prot. mirabilis 190; 190): 0.0313 µg/mL; MIC (Ps. aeruginosa K799/61; [14]): 0.0625 µg/mL; MIC (E. coli ATCC 25922): 0.0313 µg/mL; MIC (Prot. mirabilis 90; 90): 0.125 µg/mL; MIC (Xan. maltophilia 2897B): 0.25 µg/mL |
